The results in this text go back to patent US7030150B2, “Benzimidazole compounds and antiviral uses thereof” (Trimeris, Inc., priority 2001, dated 2006).

Each structure is given as a SMILES string.

The data set relates to uninfected Hep2 cells.
What is called CC50 is the concentration that lowers cell viability or growth by half. Low values mean harm at low concentration, high ones better tolerance by the cells. The compound `CC(C)N(C)Cc1nc2ccccc2n1Cc1nc2ccccc2[nH]1` [compound 82] yielded a CC50 of 25 µM.
The result for `CCCN(Cc1nc2ccccc2n1Cc1cc(F)cc2c1OCOC2)CC1CC1` [compound 24] reads 82 µM; that for `CC(C)N(Cc1nc2ccccc2n1Cc1ccc(S(C)(=O)=O)cc1)C1CCCCC1` [compound 13], at least 100 µM.
The value for `c1ccc2[nH]c(Cn3c(CN4CCSC4)nc4ccccc43)nc2c1` [compound 222] was at least 100 µM; that for `FC(F)(F)c1cccc(N2CCN(Cc3nc4ccccc4n3Cc3nc4ccccc4[nH]3)CC2)c1` [compound 219] was at least 100 µM; that for `CC(C)N(Cc1nc2ccccc2n1Cc1nc2ccccc2[nH]1)CC(O)c1ccc(O)c(O)c1` (stereo not drawn) [compound 107] was at least 100 µM.
The result for `CCCCCN(C)Cc1nc2ccccc2n1Cc1nc2ccccc2[nH]1` [compound 91] reads 80 µM.
Turning to `COc1cccc(CNCc2nc3ccccc3n2Cc2nc3ccccc3[nH]2)c1OC` [compound 181], the 50% cytotoxic concentration (CC50) is at least 100 µM.
In turn, `CN(Cc1nc2ccccc2n1Cc1nc2ccccc2[nH]1)C(c1ccccc1)c1ccccc1` [compound 111] had a CC50 of at least 100 µM.
The value for `COC(=O)c1ccc2nc(CN3CCOCC3)n(Cc3nc4ccccc4[nH]3)c2c1` [compound 11] was 26 µM.
The result for `c1ccc(CN2CCC(NCc3nc4ccccc4n3Cc3nc4ccccc4[nH]3)CC2)cc1` [compound 137] reads 95 µM; that for `COc1ccc(N(C)Cc2nc3ccccc3n2Cc2nc3ccccc3[nH]2)cc1` [compound 110], at least 100 µM; that for `OCCC1CCCCN1Cc1nc2ccccc2n1Cc1nc2ccccc2[nH]1` (stereo not drawn) [compound 213], at least 100 µM.
The result for `c1ccc2[nH]c(Cn3c(CN4CCC(C5CCNCC5)CC4)nc4ccccc43)nc2c1` [compound 217] reads at least 100 µM.
The compound `COc1ccc(CCNCc2nc3ccccc3n2Cc2nc3ccccc3[nH]2)cc1` [compound 120] displayed a cytotoxic concentration (CC50) of at least 100 µM.
The result for `Cc1nc(Cn2c(CN(C(C)C)C3CCCCC3)nc3ccccc32)cs1` [compound 2] reads 50 µM; that for `CCN(CC)CCCC(C)NCc1nc2ccccc2n1Cc1nc2ccccc2[nH]1` (stereo not drawn) [compound 148], at least 100 µM.
The result for `c1ccc2c(Cn3c(CN4CCCCC4)nc4ccccc43)c3ccccc3nc2c1` [compound 72] reads at least 100 µM.
The value for `c1ccc2[nH]c(Cn3c(CN4CCC5CCCCC5C4)nc4ccccc43)nc2c1` (stereo not drawn) [compound 234] was 24 µM; that for `CN(C)CCCNCc1nc2ccccc2n1Cc1nc2ccccc2[nH]1` [compound 174] was at least 100 µM; that for `C=CCN(C)Cc1nc2ccccc2n1Cc1nc2ccccc2[nH]1` [compound 83] was 58 µM.
For the compound `Fc1ccc(CNCc2nc3ccccc3n2Cc2nc3ccccc3[nH]2)cc1` [compound 126], the CC50 is at least 100 µM.
The result for `c1ccc2[nH]c(Cn3c(CN4CCC4)nc4ccccc43)nc2c1` [compound 200] reads 7.6 µM; that for `O=C(OCc1ccccc1)N1CCCCN(Cc2nc3ccccc3n2Cc2nc3ccccc3[nH]2)CC1` [compound 232], at least 100 µM; that for `COCCCNCc1nc2ccccc2n1Cc1nc2ccccc2[nH]1` [compound 116], at least 100 µM.
The value for `Clc1ccccc1CNCc1nc2ccccc2n1Cc1nc2ccccc2[nH]1` [compound 150] was at least 100 µM; that for `CC1CC(C)CN(Cc2nc3ccccc3n2Cc2nc3ccccc3[nH]2)C1` (stereo not drawn) [compound 205] was at least 100 µM; that for `CCCCC(CO)NCc1nc2ccccc2n1Cc1nc2ccccc2[nH]1` (stereo not drawn) [compound 176] was at least 100 µM.
The value for `Cc1nc(Cn2c(CN3CCCCC3)nc3ccccc32)cs1` [compound 51] was 50 µM; that for `Cc1nc(Cn2c(CN(Cc3ccccc3)C(C)C)nc3ccccc32)cs1` [compound 40] was 50 µM.
For the compound `FC(F)(F)Oc1ccccc1Cn1c(CN2CCCCC2)nc2ccccc21` [compound 75], half-maximal cytotoxicity (CC50) was put at 24 µM.
The result for `c1ccc2[nH]c(Cn3c(CN4CCCC4)nc4ccccc43)nc2c1` [compound 199] reads at least 100 µM.
The result for `CCN(CC)CCNCc1nc2ccccc2n1Cc1nc2ccccc2[nH]1` [compound 162] reads at least 100 µM; that for `c1ccc2[nH]c(Cn3c(CN4CCC(N5CCCC5)CC4)nc4ccccc43)nc2c1` [compound 228], 60 µM; that for `O=C1C(=O)N(Cc2nc3ccccc3n2Cc2nc3ccccc3[nH]2)c2ccc([N+](=O)[O-])cc21` [compound 236], at least 100 µM.
Take `c1ccc2[nH]c(Cn3c(CNCCCN4CCOCC4)nc4ccccc43)nc2c1` [compound 124]: the CC50 is at least 100 µM.
The result for `OCCOCCN1CCN(Cc2nc3ccccc3n2Cc2nc3ccccc3[nH]2)CC1` [compound 216] reads 9 µM.
As for `CN(C)CCN(C)Cc1nc2ccccc2n1Cc1nc2ccccc2[nH]1` [compound 84], the CC50 was at least 100 µM.
The result for `C=C(C)CN(CC)Cc1nc2ccccc2n1Cc1nc2ccccc2[nH]1` [compound 89] reads at least 100 µM; that for `N=C(N)NCc1nc2ccccc2n1Cc1nc2ccccc2[nH]1` [compound 104], at least 100 µM.
The result for `Fc1ccc(F)c(CNCc2nc3ccccc3n2Cc2nc3ccccc3[nH]2)c1` [compound 114] reads at least 100 µM; that for `c1ccc(Oc2cccc(Cn3c(CN4CCCCC4)nc4ccccc43)c2)cc1` [compound 74], 10 µM.
The compound `CN1CCC(N(C)Cc2nc3ccccc3n2Cc2nc3ccccc3[nH]2)CC1` [compound 80] yielded a CC50 of 58 µM.
Regarding `Fc1cc(F)cc(CNCc2nc3ccccc3n2Cc2nc3ccccc3[nH]2)c1` [compound 173], the CC50 was found to be 6.4 µM.
The result for `CCN(Cc1ccncc1)Cc1nc2ccccc2n1Cc1nc2ccccc2[nH]1` [compound 99] reads at least 100 µM; that for `c1ccc2[nH]c(Cn3c(CN4CCCCC4)nc4ccccc43)nc2c1` [compound 79], at least 100 µM.
The result for `C#CCCN(C)Cc1nc2ccccc2n1Cc1nc2ccccc2[nH]1` [compound 94] reads 16 µM.
The result for `c1ccc2[nH]c(Cn3c(CNCc4ccc5c(c4)OCO5)nc4ccccc43)nc2c1` [compound 169] reads at least 100 µM; that for `O=c1[nH]ccn1CCNCc1nc2ccccc2n1Cc1nc2ccccc2[nH]1` [compound 166], at least 100 µM.
As for `CCCN(Cc1nc2ccccc2n1Cc1ccc2ccccc2n1)CC1CC1` [compound 20], the CC50 came to 50 µM.
The value for `FC(F)(F)c1ccc(N2CCN(Cc3nc4ccccc4n3Cc3nc4ccccc4[nH]3)CC2)nc1` [compound 196] was 78 µM.
The value for `CCCCN(CC)Cc1nc2ccccc2n1Cc1nc2ccccc2[nH]1` [compound 92] was 68 µM; that for `Fc1cc2c(c(Cn3c(CN4CCCCC4)nc4ccccc43)c1)OCOC2` [compound 59] was at least 100 µM; that for `c1ccc(CCNCc2nc3ccccc3n2Cc2nc3ccccc3[nH]2)nc1` [compound 125] was at least 100 µM.
The result for `FC(F)(F)Oc1cccc(CNCc2nc3ccccc3n2Cc2nc3ccccc3[nH]2)c1` [compound 127] reads at least 100 µM.
In turn, `CCCN(Cc1nc2ccccc2n1Cc1c2ccccc2nc2ccccc12)CC1CC1` [compound 23] yielded a CC50 of at least 101 µM.
In turn, `FC(F)(F)c1ccc(CNCc2nc3ccccc3n2Cc2nc3ccccc3[nH]2)cc1` [compound 151] showed a CC50 of at least 100 µM.
